Source: ChEMBL document CHEMBL3046546, “Synthesis and biological evaluation of a novel anti-malarial lead” (Med Chem Res, 2011)
Activity calls are given as the source filed them. No cut-off for these calls is given here.

Key:
Format in all cases: functional, organism-based
[1] = test system: Leishmania donovani; test: Antileishmanial activity against promastigotes of Leishmania donovani expressing firefly luciferase after 72 hr by luciferase assay
[2] = test system: Staphylococcus aureus; test: Antimicrobial activity against methicillin-resistant Staphylococcus aureus
[3] = test system: Plasmodium falciparum; test: Antimalarial activity against chloroquine-sensitive Plasmodium falciparum D6 after 72 hr by […] assay; settings: D6, 72 h
[4] = test system: Escherichia coli; test: Antimicrobial activity against Escherichia coli
[5] = test system: Mycobacterium intracellulare; test: Antimicrobial activity against Mycobacterium intracellulare
[6] = test system: Plasmodium falciparum; test: Antimalarial activity against chloroquine-resistant Plasmodium falciparum W2 after 72 hr by […] assay; settings: W2, 72 h
[7] = test system: Candida albicans; test: Antimicrobial activity against Candida albicans
[8] = test system: Cryptococcus neoformans; test: Antimicrobial activity against Cryptococcus neoformans
[9] = test system: Aspergillus fumigatus; test: Antimicrobial activity against Aspergillus fumigatus

| Structure (SMILES) | IC90 [1] | IC50 [1] | Activity [2] | IC50 [3] | Activity [4] | Activity [5] | IC50 [6] | Activity [7] | Activity [8] | Activity [9] |
| --- | --- | --- | --- | --- | --- | --- | --- | --- | --- | --- |
| C[C@@H]1[C@H](O)[C@@H](C)/C=C/C=C/C=C/C=C/C=C/C=C/C=C/[C@H](O[C@@H]2O[C@H](C)[C@@H](O)[C@H](N)[C@@H]2O)C[C@@H]2O[C@](O)(C[C@@H](O)C[C@@H](O)[C@H](O)CC[C@@H](O)C[C@@H](O)CC(=O)O[C@H]1C)C[C@H](O)[C@H]2C(=O)O [AMPHOTERICIN B] | 2.5 µM |  |  |  |  |  |  |  |  |  |
| CCc1ccc(Cc2cc(N)cc(N)c2)cc1 | 134 µM | 69 µM |  |  |  |  |  |  |  |  |
| CCOC(=O)C(=O)Nc1cc(Cc2ccc(CC)cc2)cc(NC(=O)Cc2ccc(Cc3cn(Cc4ccccc4)cn3)cc2)c1 |  | 41 µM | inactive | 6.5 µM | inactive | inactive | 5.5 µM | inactive | inactive | inactive |
| CCOC(=O)Cc1ccc(Cc2cn(Cc3ccccc3)cn2)cc1 |  |  |  | 8 µM |  |  | 6.3 µM |  |  |  |
